The text below walks through data of patent publication US20090099167A1, “Organic compounds” (Novartis Institutes for Biomedical Research, priority 2004, published 2009).

One test addresses T1, c-Kit (Homo sapiens, UniProt P10721).
T1 construct: whole cytoplasmic domain of c-Kit (aa 544-976); made in house; host or cells: Sf9 or High Five (baculovirus)
Description: c-kit kinase inhibition. To be noted: Table 4. It counts as biochemical.

The target in another test is T2, human RET (Homo sapiens, UniProt P07949).
T2 construct: fused on or other part: N-terminal GST tag (pFB-GSTX3 vector)
Description: RET kinase inhibition, GST-wtRET or GST-RET-Men2B, 33P incorporation into poly(Glu,Tyr). It counts as biochemical. To be noted: Table 4. How it is done:
The inhibition of RET is measured as follows: The baculovirus donor vector pFB-GSTX3 is used to generate a recombinant baculovirus that expresses the amino acid region 658-1072 (Swiss prot No. Q9BTB0) of the intra-cytoplasmic kinase domain of human RET-Men2A which corresponds to the wild-type kinase domain of RET (wtRET) and RET-Men2B, which differs from the wtRET by the activating mutation in the activation loop M918T. The coding sequences for the cytoplasmic domain of wtRET and RET-Men2B are amplified by PCR from the plasmids pBABEpuro RET-Men2A and pBABEpuro RET-Men2B. The amplified DNA fragments and the pFB-GSTX3 vector are made compatible for ligation by digestion with SalI and KpnI. Ligation of these DNA fragments results in the baculovirus donor plasmid pFB-GX3-RET-Men2A and pFB-GX3-RET-Men2B, respectively. Production of virus: Transfer vectors containing the kinase domains are transfected into the DH10Bac cell line (GIBCO) and plated on selective agar plates. Colonies without insertion of the fusion sequence into the viral genome (carried by the bacteria) are blue. Single, white colonies are picked and viral DNA (bacmid) are isolated from the bacteria by standard plasmid purification procedures. Sf9 cells or Sf21 (American Type Culture Collection) cells are then transfected in 25 cm^2 flasks with the viral DNA using Cellfectin reagent. Determination of small scale protein expression in Sf9 cells: Virus-containing media is collected from the transfected cell culture and used for infection to increase its titer. Virus-containing media obtained after two rounds of infection is used for large-scale protein expression. For large-scale protein expression 100 cm^2 round tissue culture plates are seeded with 5×10^7 cells/plate and infected with 1 mL of virus-containing media (approximately 5 MOIs). After 3 days, the cells are scraped off the plate and centrifuged at 500 rpm for 5 minutes. Cell pellets from 10-20, 100 cm^2 plates, are re-suspended in 50 mL of ice-cold lysis buffer (25 mM tris-HCl, pH 7.5, 2 mM EDTA, 1% NP-40, 1 mM DTT, 1 mM P MSF). The cells are stirred on ice for 15 minutes and then centrifuged at 5,000 rpms for 20 minutes. Purification of GST-tagged proteins: The centrifuged cell lysate is loaded onto a 2 mL glutathione-sepharose column (Pharmacia) and is washed 3× with 10 mL of 25 mM tris-HCl, pH 7.5, 2 mM EDTA, 1 mM DTT, 200 mM NaCl. The GST-tagged proteins are then eluted by 10 applications (1 mL each) of 25 mM tris-HCl, pH 7.5, 10 mM reduced-glutathione, 100 mM NaCl, 1 mM DTT, 10% glycerol and stored at −70° C. Measure of enzyme activity: Tyrosine protein kinase assays with either purified GST-wtRET or GST-RET-Men2B protein are carried out in a final volume of 30 μL containing 15 ng of either GST-wtRET or GST-RET-Men2B protein, 20 mM tris-HCl, pH 7.5, 1 mM MnCl2, 10 mM MgCl2, 1 mM DTT, 3 μg/mL poly(Glu,Tyr) 4:1, 1% DMSO, 2.0 μM ATP (γ-[^33P]-ATP 0.1 μCi). The activity is assayed in the presence or absence of inhibitors, by measuring the incorporation of ^33P from [γ^33P] ATP into poly(Glu,Tyr) 4:1. The assay is carried out in 96-well plates at ambient temperature for 15 minutes under conditions described below and terminated by the addition of 20 μL of 125 mM EDTA. Subsequently, 40 μL of the reaction mixture are transferred onto Immobilon-PVDF membrane (Millipore) previously soaked for 5 minutes with methanol, rinsed with water, then soaked for 5 minutes with 0.5% H3PO4 and mounted on vacuum manifold with disconnected vacuum source. After spotting all samples, vacuum is connected and each well-rinsed with 200 μL 0.5% H3PO4. Membranes are removed and washed 4× on a shaker with 1.0% H3PO4, once with ethanol. Membranes are counted after drying at ambient temperature, mounting in Packard TopCount 96-well frame, and addition of 10 μL/well of Microscint™ (Packard). IC50 values are calculated by linear regression analysis of the percentage inhibition of each compound in duplicate, at 4 concentrations (usually 0.01, 0.1, 1 and 10 μM). […]

T2 sequence (P07949 1-1072 isoform P07949-2): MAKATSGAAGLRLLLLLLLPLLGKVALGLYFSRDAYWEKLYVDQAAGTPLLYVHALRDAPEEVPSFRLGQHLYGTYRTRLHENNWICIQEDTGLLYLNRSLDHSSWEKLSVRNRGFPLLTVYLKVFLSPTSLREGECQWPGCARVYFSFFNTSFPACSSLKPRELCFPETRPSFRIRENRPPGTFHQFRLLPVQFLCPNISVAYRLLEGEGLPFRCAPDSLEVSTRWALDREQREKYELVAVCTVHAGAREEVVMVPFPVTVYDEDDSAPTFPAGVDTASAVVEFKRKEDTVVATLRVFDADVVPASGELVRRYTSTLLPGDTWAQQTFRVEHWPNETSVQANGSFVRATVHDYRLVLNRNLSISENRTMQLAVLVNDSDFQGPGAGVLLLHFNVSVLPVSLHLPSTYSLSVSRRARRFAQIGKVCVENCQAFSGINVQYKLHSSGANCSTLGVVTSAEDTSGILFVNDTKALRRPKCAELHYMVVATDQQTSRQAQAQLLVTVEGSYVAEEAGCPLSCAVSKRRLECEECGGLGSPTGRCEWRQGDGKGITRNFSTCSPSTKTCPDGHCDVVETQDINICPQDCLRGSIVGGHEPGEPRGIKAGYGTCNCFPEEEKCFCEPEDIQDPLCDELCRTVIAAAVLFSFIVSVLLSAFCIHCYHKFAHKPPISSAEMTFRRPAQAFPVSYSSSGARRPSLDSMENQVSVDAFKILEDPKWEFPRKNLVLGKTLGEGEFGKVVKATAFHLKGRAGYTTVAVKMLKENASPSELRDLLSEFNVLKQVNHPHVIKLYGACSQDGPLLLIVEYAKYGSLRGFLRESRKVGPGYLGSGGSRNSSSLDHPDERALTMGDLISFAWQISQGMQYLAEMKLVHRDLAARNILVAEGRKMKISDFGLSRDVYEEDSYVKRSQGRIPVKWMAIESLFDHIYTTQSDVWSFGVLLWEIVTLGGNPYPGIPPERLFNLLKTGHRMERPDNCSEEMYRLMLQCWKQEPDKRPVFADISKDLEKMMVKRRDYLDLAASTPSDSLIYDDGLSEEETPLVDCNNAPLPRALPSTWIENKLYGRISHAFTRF
T1 sequence (P10721 544-976): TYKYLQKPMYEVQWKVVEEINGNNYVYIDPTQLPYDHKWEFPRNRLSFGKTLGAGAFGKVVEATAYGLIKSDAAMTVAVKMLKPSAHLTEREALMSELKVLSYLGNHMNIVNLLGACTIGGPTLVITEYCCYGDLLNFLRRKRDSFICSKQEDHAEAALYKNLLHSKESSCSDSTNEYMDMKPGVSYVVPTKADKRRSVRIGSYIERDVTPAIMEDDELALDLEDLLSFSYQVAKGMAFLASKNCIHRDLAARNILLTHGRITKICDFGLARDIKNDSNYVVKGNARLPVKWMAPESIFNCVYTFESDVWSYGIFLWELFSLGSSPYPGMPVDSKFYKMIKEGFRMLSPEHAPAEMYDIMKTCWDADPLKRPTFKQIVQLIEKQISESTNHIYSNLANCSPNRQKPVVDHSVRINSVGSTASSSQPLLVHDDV

A word on the IC50: it is the concentration that inhibits the measured activity by half. Consider `CN1CCN(c2ccc(-c3cnn4c(N)c(-c5cccc(O)c5)cnc34)cc2)CC1` [Example 1, 3-{7-Amino-3-[4-(4-methyl-piperazin-1-yl)-phenyl]-pyrazolo[1,5-a]pyrimidin-6-yl}-phenol], for which the IC50 on c-Kit and on human RET was less than 10 µM in each case.
`COc1ccccc1-c1cnn2c(N)c(-c3cccc(O)c3)cnc12` [Example 48, 3-[7-Amino-3-(2-methoxy-phenyl)-pyrazolo[1,5-a]pyrimidin-6-yl]-phenol]: on human RET, the IC50 is less than 10 µM.
Still for that read-out and setting: the value for `CN1CCN(c2cccc(-c3cnn4c(N)c(-c5ccc(O)cc5)cnc34)c2)CC1` [Example 39, 4-{7-Amino-3-[3-(4-methyl-piperazin-1-yl)-phenyl]-pyrazolo[1,5-a]pyrimidin-6-yl}-phenol] was less than 10 µM.
On human RET, `CN1CCN(c2cccc(-c3cnn4c(N)c(-c5cccc(O)c5)cnc34)c2)CC1` [Example 29, 3-{7-Amino-3-[3-(4-methyl-piperazin-1-yl)-phenyl]-pyrazolo[1,5-a]pyrimidin-6-yl}-phenol] showed an IC50 of less than 10 µM.
